Patent US20150218099A1, “METHODS FOR CONTROL OF AQUATIC WEEDS USING HERBICIDAL 4-AMINO-3-CHLORO-6-(4-CHLORO-2-FLUORO-3-METHOXYPHENYL)PYRIDINE-2-CARBOXYLIC ACIDS” (Dow AgroSciences LLC, priority 2014, published 2015)

Key:
[1] = test system: Hydrilla (HYLLI); assay: Control of hydrilla: aboveground dry weight after exposure to Compounds 1 and 2 (14 L cylinders); type: in vivo, Hydrilla verticillata (L.f.) Royle; details: final aboveground dry weight, SC formulation, untreated 2.48
Description: Apical sections of hydrilla (HYLLI) were planted in potting soil amended with Osmocote® fertilizer in small pots (13.5 cm length×3.75 cm diameter). A 2.54 cm sand layer was placed over the top of the potting soil. The pots containing hydrilla were placed into 14 L acrylic cylinders filled with well water and allowed to establish slight growth prior to treatment. Cylinders were then treated with Compound 1 (halauxifen-methyl 96 grams acid equivalent per liter (g ae/L) Suspension Concentrate (SC)) or Compound 2 (benzyl 4-amino-3-chloro-5-fluoro-6-(4-chloro-2-fluoro-3-methoxyphenyl)pyridine-2-carboxylate (125 grams active ingredient per liter (g ai/L) SC)) at 50, 100 and 200 parts per billion (ppb). All treatments were replicated 4 times. […]

[2] = test system: Curlyleaf Pondweed (PTMCR); assay: Control of curlyleaf pondweed: aboveground dry weight after exposure to Compound 1; type: in vivo, Potamogeton crispus L.; details: thirty days following a 24-hour exposure, untreated 0.087
Description: (§1) Apical sections (12 to 15 cm in length) of Eurasian watermilfoil (MYPSP) and curlyleaf pondweed (PTMCR) were planted into small pots (13.5 cm length×3.75 cm diameter) containing topsoil amended with 14-14-14 slow release Osmocote® fertilizer (˜2.5 g Osmocote/kg soil). Approximately 5 to 7 cm of the apical section extended above the sediment at planting, and a sand cap was placed over the potting soil (˜2 cm deep). Plants were then transferred to 12 L acrylic tanks filled with well water. Plants were allowed to grow for 7 d before the treatment was initiated in triple replicate. […] At harvest, plants were rinsed free of algae, roots and shoots were separated and placed in paper sacks in a drying oven for 4 days at 70° C. temperature, and dry weights were measured and compared to an untreated control treatment (Table 3).

[3] = test system: Eurasian Watermilfoil (MYPSP); assay: Control of Eurasian watermilfoil: aboveground dry weight after exposure to Compound 1; type: in vivo, Myriophyllum spicatum L.; details: thirty days following a 24-hour exposure, untreated 1.257
Description: as §1

[4] = test system: Hydrilla (HYLLI); assay: Control of hydrilla: aboveground dry weight after submersed exposure (12 L tanks); type: in vivo, Hydrilla verticillata (L.f.) Royle; details: final aboveground dry weight, thirty-three days following submersed exposure, untreated 1.047
Description: Apical sections (12 to 15 centimeters (cm) in length) of hydrilla (HYLLI) were planted into small pots (13.5 cm length×3.75 cm diameter) containing topsoil amended with 14-14-14 slow release Osmocote® fertilizer (˜2.5 grams (g) Osmocote per kilogram (kg) soil). Approximately 5 to 7 cm of the apical section extended above the sediment at planting, and a sand cap was placed over the potting soil (˜2 cm deep). Plants were then transferred to 12 liter (L) acrylic tanks filled with well water. Tanks were maintained in a growth room with a 14:10 hour (h) photoperiod at 26° C. (±2° C.). Plants were allowed to grow for 17 days (d) before the treatments were initiated in triple replicate. Plants were treated with Compound 1 (halauxifen-methyl) at 0, 10, 100, 1000 parts per billion (ppb) with three replicates each. Treatments were only applied once. Plants were harvested at 33 d after initial treatment. At harvest, plants were rinsed free of algae and placed in paper sacks in a drying oven for 2 d at 70° C. temperature. Mean dry weights were determined and means separated using least significant differences (Table 1).

SMILES	Dry Weight (grams) of HYLLI ([1]; 50 ppb) [b grams]	Dry Weight (grams) of HYLLI ([1]; 100 ppb)	Dry Weight (grams) of HYLLI ([1]; 200 ppb) [b grams]	Dry Weight (grams) of PTMCR ([2]; 5 ppb) [a grams]	Dry Weight (grams) of PTMCR ([2]; 10 ppb) [ab grams]	Dry Weight (grams) of PTMCR ([2]; 50 ppb) [b grams]	Dry Weight (grams) of PTMCR ([2]; 100 ppb) [b grams]	Dry Weight (grams) of MYPSP ([3]; 5 ppb) [b grams]	Dry Weight (grams) of MYPSP ([3]; 10 ppb) [b grams]	Dry Weight (grams) of MYPSP ([3]; 50 ppb) [b grams]	Dry Weight (grams) of MYPSP ([3]; 100 ppb) [b grams]	Dry Weight (grams) of HYLLI ([4]; 10 ppb) [b grams]	Dry Weight (grams) of HYLLI ([4]; 100 ppb) [ab grams]	Dry Weight (grams) of HYLLI ([4]; 1000 ppb) [b grams]
COC(=O)c1nc(-c2ccc(Cl)c(OC)c2F)cc(N)c1Cl [Compound 1, methyl 4-amino-3-chloro-6-(4-chloro-2-fluoro-3-methoxyphenyl)pyridine-2-carboxylate]	0.02	0.64 ab grams	0	0.117	0.043	0.000	0.000	0.000	0.000	0.000	0.000	0.02	0.003	0
COc1c(Cl)ccc(-c2nc(C(=O)OCc3ccccc3)c(Cl)c(N)c2F)c1F [Compound 2, benzyl 4-amino-3-chloro-5-fluoro-6-(4-chloro-2-fluoro-3-methoxyphenyl)pyridine-2-carboxylate]	0	0 b grams	0											
